Experimental data taken from patent publication US5792775A (priority 1996, dated 1998).
Entries after “also recorded” stand apart in the source; their conditions may differ. Where two headings read alike, the source gives them in different places.

How the values were obtained:
muscarinic m2 receptors = molecular target: T1, muscarinic m2 receptors (Rattus norvegicus, UniProt P10980); test: Muscarinic m2 receptor binding ([^3 H]AFDX 384), NOVASCREEN; details: for muscarinic m2 affinity relative to dopamine transporter affinity: in words
T1 sequence (P10980 1-466): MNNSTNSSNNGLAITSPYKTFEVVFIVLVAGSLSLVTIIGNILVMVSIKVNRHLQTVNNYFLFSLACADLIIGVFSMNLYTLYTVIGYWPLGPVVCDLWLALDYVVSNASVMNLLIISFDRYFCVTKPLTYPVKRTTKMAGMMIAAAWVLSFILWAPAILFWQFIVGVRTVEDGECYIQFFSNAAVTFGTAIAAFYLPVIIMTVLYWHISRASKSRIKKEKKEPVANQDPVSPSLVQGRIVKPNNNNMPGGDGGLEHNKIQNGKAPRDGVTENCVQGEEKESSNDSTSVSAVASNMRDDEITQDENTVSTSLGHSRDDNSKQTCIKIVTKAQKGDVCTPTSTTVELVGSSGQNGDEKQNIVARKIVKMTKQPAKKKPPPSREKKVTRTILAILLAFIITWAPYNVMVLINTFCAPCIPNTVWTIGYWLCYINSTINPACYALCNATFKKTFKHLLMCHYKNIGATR
Source text: (§1) Serotonin (5-HTT), norepinephrine transporter (NET) and muscarinic m1 and m2 receptor binding data were provided by NOVASCREEN.

[1] = test system: dopamine uptake, rat caudate putamen; assay type: biochemical
muscarinic m1 receptors = molecular target: T2, muscarinic m1 receptors (Rattus norvegicus, UniProt P08482); test: biochemical; assay type: binding
T2 sequence (P08482 1-460): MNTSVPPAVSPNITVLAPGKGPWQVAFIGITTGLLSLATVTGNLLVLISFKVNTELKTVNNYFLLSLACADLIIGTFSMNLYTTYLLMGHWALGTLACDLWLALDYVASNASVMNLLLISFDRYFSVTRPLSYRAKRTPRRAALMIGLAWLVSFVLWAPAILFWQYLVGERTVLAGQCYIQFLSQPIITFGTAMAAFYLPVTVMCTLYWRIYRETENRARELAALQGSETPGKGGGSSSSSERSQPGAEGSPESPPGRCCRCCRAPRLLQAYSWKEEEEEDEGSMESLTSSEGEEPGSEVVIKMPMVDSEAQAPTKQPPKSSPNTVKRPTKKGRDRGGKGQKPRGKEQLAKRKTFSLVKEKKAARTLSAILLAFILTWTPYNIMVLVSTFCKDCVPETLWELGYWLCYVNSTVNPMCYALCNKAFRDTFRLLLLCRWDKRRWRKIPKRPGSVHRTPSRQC

[2] = molecular target: norepinephrine transporter (NET) (Rattus norvegicus, UniProt Q63380); test: biochemical; assay type: binding
[3] = molecular target: serotonin transporter (5HTT) (Rattus norvegicus, UniProt P31652); test: Serotonin transporter binding ([^3 H]citalopram), NOVASCREEN
Source text: as §1

[4] = molecular target: T3, dopamine transporter (DAT) (Rattus norvegicus, UniProt P23977); test: Displacement of [^3 H]WIN 35,428 binding (Dopamine Transporter Binding Assay); details: for Ki: Table III, displacement of [^3 H]WIN 35,428, rat caudate putamen, % error in parentheses
T3 construct: brains removed to an ice-cooled dish for dissection of the caudate putamen; from tissue; host or cells: rat caudate putamen, washed membranes of male Sprague-Dawley rats (Taconic)

[5] = Table IV, head prints no unit, IC50 in nM, read-out: [^3 H]DAU (inhibition of [^3 H]-Dopamine Uptake)
[6] = read-out: NET, % Inhibition at 10 μM
[7] = Table V, rat caudate putamen, read-out: [^3 H]DA Uptake Inhibition IC50
[8] = Table III footnote b, read-out: m2, % Inhibition of radiolabeled ligand binding

T3 sequence (P23977 whole entry): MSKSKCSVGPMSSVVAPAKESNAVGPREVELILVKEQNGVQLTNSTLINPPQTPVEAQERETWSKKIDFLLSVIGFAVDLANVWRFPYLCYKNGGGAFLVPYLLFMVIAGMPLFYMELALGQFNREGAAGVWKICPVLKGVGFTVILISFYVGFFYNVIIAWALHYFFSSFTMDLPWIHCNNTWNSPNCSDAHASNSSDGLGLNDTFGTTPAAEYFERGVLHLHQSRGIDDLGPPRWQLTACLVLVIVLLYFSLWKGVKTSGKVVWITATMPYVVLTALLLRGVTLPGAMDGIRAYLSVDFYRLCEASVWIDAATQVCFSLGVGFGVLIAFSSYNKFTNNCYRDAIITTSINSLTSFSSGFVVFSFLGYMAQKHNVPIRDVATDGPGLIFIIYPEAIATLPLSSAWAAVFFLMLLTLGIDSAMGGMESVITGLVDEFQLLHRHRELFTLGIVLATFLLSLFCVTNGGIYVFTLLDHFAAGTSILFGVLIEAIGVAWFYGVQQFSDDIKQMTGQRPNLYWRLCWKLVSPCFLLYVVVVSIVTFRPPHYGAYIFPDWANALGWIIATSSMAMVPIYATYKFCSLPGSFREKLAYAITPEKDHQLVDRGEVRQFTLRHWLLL
serotonin transporter (5HTT), sequence (P31652 whole entry): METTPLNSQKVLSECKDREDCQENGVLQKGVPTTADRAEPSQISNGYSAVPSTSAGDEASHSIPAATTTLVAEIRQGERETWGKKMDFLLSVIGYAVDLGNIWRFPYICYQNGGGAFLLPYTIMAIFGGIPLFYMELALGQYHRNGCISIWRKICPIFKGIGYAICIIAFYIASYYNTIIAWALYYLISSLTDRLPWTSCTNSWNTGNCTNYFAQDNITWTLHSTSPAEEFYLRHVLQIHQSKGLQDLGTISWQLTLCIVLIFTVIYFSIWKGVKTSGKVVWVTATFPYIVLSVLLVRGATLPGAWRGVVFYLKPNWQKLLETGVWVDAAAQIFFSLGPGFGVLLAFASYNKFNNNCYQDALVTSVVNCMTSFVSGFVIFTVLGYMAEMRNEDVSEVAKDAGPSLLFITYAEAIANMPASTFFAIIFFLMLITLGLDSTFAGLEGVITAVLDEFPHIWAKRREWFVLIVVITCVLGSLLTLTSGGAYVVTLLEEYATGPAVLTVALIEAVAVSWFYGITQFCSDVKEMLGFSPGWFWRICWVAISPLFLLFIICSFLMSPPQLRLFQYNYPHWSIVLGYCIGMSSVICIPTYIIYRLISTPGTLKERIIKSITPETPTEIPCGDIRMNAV
norepinephrine transporter (NET), sequence (Q63380 1-617): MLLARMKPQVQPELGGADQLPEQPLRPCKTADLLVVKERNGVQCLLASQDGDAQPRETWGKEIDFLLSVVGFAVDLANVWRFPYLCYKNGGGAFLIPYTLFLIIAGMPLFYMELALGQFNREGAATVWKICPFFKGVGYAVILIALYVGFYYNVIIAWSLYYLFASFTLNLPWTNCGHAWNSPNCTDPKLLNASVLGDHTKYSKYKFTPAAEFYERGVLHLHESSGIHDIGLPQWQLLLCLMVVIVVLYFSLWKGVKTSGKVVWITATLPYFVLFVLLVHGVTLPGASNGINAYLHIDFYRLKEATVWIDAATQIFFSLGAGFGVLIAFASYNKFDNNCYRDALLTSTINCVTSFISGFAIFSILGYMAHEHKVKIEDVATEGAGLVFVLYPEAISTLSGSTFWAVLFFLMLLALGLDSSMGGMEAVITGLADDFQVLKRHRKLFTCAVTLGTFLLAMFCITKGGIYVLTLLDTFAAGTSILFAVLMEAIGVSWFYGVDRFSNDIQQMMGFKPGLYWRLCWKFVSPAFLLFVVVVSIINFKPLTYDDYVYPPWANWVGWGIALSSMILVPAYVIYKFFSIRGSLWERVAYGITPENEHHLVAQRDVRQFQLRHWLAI

Fc1ccc(C(O[C@H]2C[C@H]3CC[C@@H](C2)N3)c2ccc(F)cc2)cc1 [AHN 2-003, N-nor-4',4"-difluorobenztropine]
Ki (muscarinic m2 receptors; Table IV): 620 nM | IC50 [1, 5]: 10 nM | Ki (muscarinic m1 receptors; Table IV, read-out: m1, Ki): 90.7 nM | Ki [2]: > 8000 nM

C=CCN1[C@@H]2CC[C@H]1C[C@@H](OC(c1ccc(F)cc1)c1ccc(F)cc1)C2 [AHN 2-005, N-allyl-4',4"-difluorobenztropine]
Ki (muscarinic m2 receptors; Table IV): 254 nM | IC50 [1, 5]: 14 nM | Ki [3]: 1970 nM | Ki (muscarinic m1 receptors; Table IV, read-out: m1, Ki): 89.1 nM | inhibition at 10 µM [2, 6]: 22.1%

Fc1ccc(C(O[C@H]2C[C@H]3CC[C@@H](C2)N3CC=Cc2ccccc2)c2ccc(F)cc2)cc1 [AHN 2-006]
Ki (muscarinic m2 receptors; Table IV): 1590 nM | IC50 [1, 5]: 184 nM | Ki [3]: 1490 nM | Ki (muscarinic m1 receptors): 240 nM | Ki [2]: 577 nM

O=CN1[C@@H]2CC[C@H]1C[C@@H](OC(c1ccc(F)cc1)c1ccc(F)cc1)C2 [AHN 2-032]
inhibition at 10 µM (muscarinic m2 receptors; Table IV footnote b, read-out: m2, % Inhibition at 10 μM): 62% | IC50 [1, 5]: 5380 nM | inhibition at 10 µM ([3]; Table IV footnote b, 10 μM, read-out: 5HHT, % Inhibition at 10 μM): 1.6% | inhibition at 10 µM (muscarinic m1 receptors; Table IV footnote b, 10 μM): 54% | inhibition at 10 µM [2, 6]: 29%

CN1[C@@H]2CC[C@H]1C[C@@H](OC(c1ccccc1)c1ccc(Cl)cc1)C2 (stereo partly drawn) [Compound 7a, 4'-Cl-3α-(diphenylmethoxy)tropane]
IC50 [1, 7]: 115 nM | inhibition at 10 µM ([3]; read-out: 5HTT (% I@10 μM)): 34% | inhibition at 10 µM ([2]; read-out: NET (% I@10 μM)): 32%

CN1[C@@H]2CC[C@H]1C[C@@H](OC(c1ccc(Cl)cc1)c1ccc(Cl)cc1)C2 [Compound 7b]
Ki (muscarinic m2 receptors; Table III): 1490 nM | Ki [2]: > 6000 nM | inhibition at 10 µM ([2]; read-out: NET (% I@10 μM)): 43%

COc1ccc(C(O[C@H]2C[C@H]3CC[C@@H](C2)N3C)c2ccccc2)cc1 (stereo partly drawn) [Compound 7d, 4'-methoxy-3α-(diphenylmethoxy)tropane]
Ki (muscarinic m2 receptors; Table III): 18.9 nM | IC50 [1, 7]: 468 nM | inhibition at 10 µM ([3]; read-out: 5HTT (% I@10 μM)): 30.5% | Ki (muscarinic m1 receptors; Table III, read-out: m1, Ki): 4.2 nM | inhibition at 10 µM ([2]; read-out: NET (% I@10 μM)): 30.9%

COc1ccc(C(O[C@H]2C[C@H]3CC[C@@H](C2)N3C)c2ccc(OC)cc2)cc1 [Compound 7e]
Ki (muscarinic m2 receptors; Table III): 1000 nM | IC50 [1, 7]: 2880 nM | inhibition at 10 µM ([3]; read-out: 5HTT (% I@10 μM)): 31% | Ki (muscarinic m1 receptors; Table III, read-out: m1, Ki): 39.6 nM | inhibition at 10 µM ([2]; read-out: NET (% I@10 μM)): 34%

CN1[C@@H]2CC[C@H]1C[C@@H](OC(c1ccccc1)c1ccc([N+](=O)[O-])cc1)C2 (stereo partly shown) [Compound 7f]
Ki (muscarinic m2 receptors; Table III): 41.9 nM | IC50 [1, 7]: 219 nM | Ki ([3]; Table III, footnote d, read-out: 5HTT Ki value in nM (bracketed)): > 3570 nM | inhibition at 10 µM ([3]; read-out: 5HTT (% I@10 μM)): 54% | Ki [4]: 197 nM | Ki (muscarinic m1 receptors; Table III, read-out: m1, Ki): 7.1 nM | inhibition at 10 µM ([2]; read-out: NET (% I@10 μM)): 29%

CN1[C@@H]2CC[C@H]1C[C@@H](OC(c1ccccc1)c1ccc(C#N)cc1)C2 (stereo partly shown) [Compound 7g]
Ki (muscarinic m2 receptors; Table III): 74 nM | IC50 [1, 7]: 222 nM | inhibition at 10 µM ([3]; read-out: 5HTT (% I@10 μM)): 40% | Ki [4]: 196 nM | Ki (muscarinic m1 receptors; read-out: m1, Ki): 7.1 nM | inhibition at 10 µM ([2]; read-out: NET (% I@10 μM)): 16%

CN1[C@@H]2CC[C@H]1C[C@@H](OC(c1ccccc1)c1ccc(Br)cc1)C2 (stereo partly shown) [Compound 7h]
Ki (muscarinic m2 receptors; Table III): 39.1 nM | IC50 [1, 7]: 29 nM | inhibition at 10 µM ([3]; read-out: 5HTT (% I@10 μM)): 39% | Ki [4]: 37.9 nM | Ki (muscarinic m1 receptors; Table III, read-out: m1, Ki): 3.7 nM | inhibition at 10 µM ([2]; read-out: NET (% I@10 μM)): 37%

CN1[C@@H]2CC[C@H]1C[C@@H](OC(c1ccc(Br)cc1)c1ccc(Br)cc1)C2 [Compound 7i]
inhibition at 10 µM (muscarinic m2 receptors; [8]): 66% | IC50 [1, 7]: 34 nM | inhibition at 10 µM ([3]; read-out: 5HTT (% I@10 μM)): 41% | Ki [4]: 91.6 nM | lower affinity for muscarinic m1 receptors than the parent benztropine (muscarinic m1 receptors): > 70 fold | inhibition at 10 µM ([2]; read-out: NET (% I@10 μM)): 41.1%

CN1[C@@H]2CC[C@H]1C[C@@H](OC(c1ccccc1)c1ccc(F)cc1)C2 (stereo partly shown) [Compound 7j]
Ki (muscarinic m2 receptors; Table III): 15 nM | inhibition at 10 µM ([3]; read-out: 5HTT (% I@10 μM)): 35.2% | Ki (muscarinic m1 receptors; Table III, read-out: m1, Ki): 1.1 nM | inhibition at 10 µM ([2]; read-out: NET (% I@10 μM)): 37.9%

CN1[C@@H]2CC[C@H]1C[C@@H](OC(c1ccccc1)c1ccc(C(C)(C)C)cc1)C2 (stereo partly shown) [Compound 7n]
inhibition at 10 µM (muscarinic m2 receptors; [8]): 54% | IC50 [1, 7]: 4460 nM | inhibition at 10 µM ([3]; read-out: 5HTT (% I@10 μM)): 24.7% | Ki (muscarinic m1 receptors; Table III, read-out: m1, Ki): 148 nM | inhibition at 10 µM ([2]; read-out: NET (% I@10 μM)): 37.6%

Fc1ccc(C(O[C@H]2C[C@H]3CC[C@@H](C2)N3Cc2ccccc2)c2ccc(F)cc2)cc1 [JHW 005]
Ki (muscarinic m2 receptors; Table IV): 276 nM | muscarinic m2 affinity relative to dopamine transporter affinity (muscarinic m2 receptors): significantly lower binding affinities at the muscarinic m1 and m2 receptors as compared to binding affinities at the dopamine transporter | IC50 [1, 5]: 285 nM | Ki [3]: 1810 nM | Ki (muscarinic m1 receptors; Table IV, read-out: m1, Ki): 2490 nM | muscarinic m1 affinity relative to dopamine transporter affinity (muscarinic m1 receptors; in words): significantly lower binding affinities at the muscarinic m1 and m2 receptors as compared to binding affinities at the dopamine transporter

CCCCN1[C@@H]2CC[C@H]1C[C@@H](OC(c1ccc(F)cc1)c1ccc(F)cc1)C2 [JHW 007]
Ki (muscarinic m2 receptors; Table IV): 308 nM | muscarinic m2 affinity relative to dopamine transporter affinity (muscarinic m2 receptors): significantly lower binding affinities at the muscarinic m1 and m2 receptors as compared to binding affinities at the dopamine transporter | IC50 ([1]; Table IV footnote d: biphasic inhibition curve, IC50 in nM, read-out: [^3 H]DAU (inhibition of [^3 H]-Dopamine Uptake), biphasic inhibition curve): 371 nM | Ki (muscarinic m1 receptors): 527 nM | muscarinic m1 affinity relative to dopamine transporter affinity (muscarinic m1 receptors): significantly lower binding affinities at the muscarinic m1 and m2 receptors as compared to binding affinities at the dopamine transporter

Fc1ccc(C(O[C@H]2C[C@H]3CC[C@@H](C2)N3CCCc2ccccc2)c2ccc(F)cc2)cc1 [JHW 010]
Ki (muscarinic m2 receptors; Table IV): 499 nM | IC50 [1, 5]: 227 nM | Ki (muscarinic m1 receptors): 273 nM

Fc1ccc(C(O[C@H]2C[C@H]3CC[C@@H](C2)N3CC2CC2)c2ccc(F)cc2)cc1 [JHW 013]
IC50 [1, 5]: 180 nM | Ki [3]: 53.4 nM | Ki (muscarinic m1 receptors; Table IV, read-out: m1, Ki): 7.7 nM | Ki [2]: 117 nM

Fc1ccc(CN2[C@@H]3CC[C@H]2C[C@@H](OC(c2ccc(F)cc2)c2ccc(F)cc2)C3)cc1 [JKW 009]
IC50 [1, 5]: 204 nM | Ki [3]: 53.4 nM | Ki (muscarinic m1 receptors): 0.45 nM | inhibition at 10 µM [2, 6]: 60%

COC(=O)[C@H]1[C@@H](c2ccc(F)cc2)C[C@@H]2CC[C@H]1N2C [[^3 H]WIN 35,428, 2β-carbomethoxy-3β-(4-fluorophenyl)tropane, reference compound]
Bmax, high affinity component of [^3 H]WIN 35,428 binding ([4]; high affinity component, LIGAND analysis): 445±338 fmol/mg protein | Bmax, low affinity component of [^3 H]WIN 35,428 binding ([4]; low affinity component, LIGAND analysis): 1995±559 fmol/mg protein

COC(=O)[C@H]1[C@@H](OC(=O)c2ccccc2)C[C@@H]2CC[C@H]1N2C [cocaine, reference compound]
mode of displacement of [^3 H]WIN 35,428 binding ([4]; monophasic vs. biphasic): biphasic displacement; also recorded: revealed two binding sites
